From PMC3790782, “Optimization and Pharmacological Validation of a Leukocyte Migration Assay in Zebrafish Larvae for the Rapid In Vivo Bioactivity Analysis of Anti-Inflammatory Secondary Metabolites” (PLoS ONE, 2013)
Values after ≈ are worked out from the molar mass of the structure shown. Structures can show the parent of a compound that is named as a salt. Marks after values point to notes of the source that are not given here.

Assays:
[1] = system: NO, PGE2, COX-2, RAW 264.7; parameters: method as in PMID 21771629, PMID 21870032; settings: cited from earlier work
[2] = system: leukocyte migration in 4 dpf zebrafish larvae; assay: LPS-enhanced leukocyte migration assay (tail transection, MPO staining, RLM); type: in vivo, zebrafish (Danio rerio); parameters: Anti-inflammatory activity at MTC: concentration or dose not given beside the values; settings: for Leukocyte migration (RLM) / Relative leukocyte migration (RLM) / response vs control in vivo at 1 µM / response vs control in vivo at 10 µM / response vs control in vivo at 30 µM / response vs control in vivo at 100 µM / response vs control in vivo at 300 µM / response vs control in vivo at 500 µM: tail cut + 10 µg/ml LPS, relative to 1% DMSO control; for Anti-inflammatory activity at MTC: (1−RLM)x100; for RLM (zebrafish-based assay): at the MTC given in Table 2; for response vs control in vivo at 1 µM / response vs control in vivo at 10 µM / response vs control in vivo at 30 µM / response vs control in vivo at 100 µM / response vs control in vivo at 300 µM / response vs control in vivo at 500 µM: Danio rerio, Leukocyte, 8 h
Method: The lipopolysaccharide- (LPS−)enhanced leukocyte migration assay was carried out by triplicate for each sample in 4 dpf zebrafish larvae. The total incubation period of the assay was eight hours. Initially, a pre-incubation step (i.e. prior to tail transection) of one hour at 28°C (±0.5°C) was carried out in 24-well culture plates. Ten larvae per well were incubated in 1 ml of testing mix, consisting of a specific concentration of each sample and the amount of 0.3 X Danieau’s medium necessary to complete 1 ml. Immediately after pre-incubation, complete tail transection in each larva was performed. Zebrafish larvae were first anesthetized by immersion in 0.3 X Danieau’s medium containing 70 µg/ml tricaine (ethyl 3-aminobenzoate, Sigma-Aldrich) and then tail transection near the tip was performed with a sterile scalpel under light microscopy (Carl Zeiss Stemi 2000C). Larvae were then placed in fresh 0.3 X Danieau’s medium without anesthetic for a few minutes until the final incubation period. For the last step, a new testing mix was prepared including 10 µg/ml lipopolysaccharides from Salmonella typhosa ATCC 10749 (LPS, Sigma-Aldrich Chemical) to enhance leukocyte migration to the injured zone. The final incubation step (i.e. subsequent to tail transection) of the injured larvae in contact with the pro-inflammatory agent and with the specific concentration of each SAID, NSAID, non-AID, NP, and PE at 28°C (±0.5°C) was done for 7 h. Within this period, sporadic evaluations of the larvae were done to examine their viability during the time of the assay. Larvae that completed the incubation time were fixed overnight in 4% formaldehyde (Sigma-Aldrich) at 4°C. Controls containing only the vehicle (1% DMSO) were processed in parallel.
Fixed larvae were gently washed twice with 1 X PBST (PBS-1X phosphate buffered saline, Gibco +0.1% Tween 20) for 5–10 min and then incubated at room temperature in 1 ml of freshly prepared Leucognost® Pox (Merck) staining solution, made according the directions of the provider. Observation of stained black-brown cells (leukocytes) in the larvae was possible within 15 min of incubation. Evaluation of the migrating leukocytes, particularly surrounding the injured region, in each larva was done under light microscopy (Carl Zeiss Stemi 2000C) and scoring was done using a migration scale established to semi-quantify the amount of migrating leukocytes on one side of each larva.
The average of the value achieved for each of the ten larvae tested in triplicate for one sample is expressed as relative leukocyte migration (RLM) according to the formula: RLM = leukocyte migration of the larva/average leukocyte migration of the negative control.
To determine the extent of leukocyte migration generated after exposing 4 dpf zebrafish larvae to mechanical and biological stimuli – namely tail transection and LPS exposure – we used a commercially available whole-mount cytochemical staining method (Leucognost® Pox, Merck) to detect MPO activity in situ. To minimize the number of handling steps post-staining, this method was chosen over the alternative myeloperoxidase stain Sudan Black B [26], [27], which also stains phospholipids, neural fats and sterols. In our experiments, we visualized migrating leukocytes in 4 dpf larvae at 8 h post-injury. Microscopic evaluations of MPO-stained larvae allowed us to score the degree of leukocyte migration at the trauma site according to a comparative scale that we established particularly for this purpose (Figure 2). Myeloperoxidase-positive cells, appearing as black-brown dots, were counted in a segment at the edge of the tail on one side of every larva (Figure 2). The number of leukocytes was then graded according to the comparative scale and subsequently converted into a relative value expressed as the relative leukocyte migration (RLM) activity for the total number or larvae for one sample.

zebrafish larvae = settings: 4 dpf zebrafish larvae, 8 h post-incubation; not more than 2 of 10 larvae with signs of toxicity
Method: For the toxicological analysis, ten 4 dpf zebrafish larvae were used per well in 24-well culture plates. Incubation of each set of larvae at 28°C (±0.5) was done with SAIDs, NSAIDs and non-AIDs at concentrations ranging from 0.1 µM to 500 µM, with NPs at concentrations ranging from 1 µM to 500 µM, and with PEs at concentrations ranging from 1 ug/ml to 1 mg/ml. Controls containing only vehicle (1% DMSO) and untreated larvae were processed in parallel. Examination of each set of larvae was done under light microscopy (Carl Zeiss Stemi 2000C) each hour during a period of 8 h, and a final evaluation at 24 h post-incubation. At 8 h post-incubation, signs of toxicity, e.g. pericardial oedema, cardiovascular defects (arrhythmia or decreased circulation), balance defects (loss of normal posture), locomotor defects (decreased touch response), and ultimately death were scored for every drug, NP, and PE to further establish their maximum tolerated concentration (MTC). […] In this context, only non-toxic concentrations (below the MTC) were considered for further leukocyte migration analysis. All the toxicological assays were performed in duplicate using a different batch of zebrafish larvae for each set of experiments.
Toxicological assessment of all the samples analyzed in our study was done prior to the evaluation of their anti-inflammatory properties. The maximum tolerated concentrations (MTCs) were determined at 8 h post-treatment according to toxicological parameters including pericardial oedema, cardiovascular defects (arrhythmia or decreased circulation), balance defects (loss of normal posture), locomotor defects (decreased touch response), and death. […] Vehicle-treated (1% DMSO) and untreated larvae were processed in parallel to minimize experimental variability in this toxicological evaluation.

TNF-α, RAW 264.7 = settings: cited from earlier work
TNF-α, iNOS, macrophages = system: TNF-α, iNOS, macrophages; parameters: method as in PMID 19378317, PMID 15668926; settings: cited from earlier work
PGE2, rat macrophages = settings: cited from earlier work
IL-1β, human monocytes = system: IL-1β, human monocytes; parameters: method as in PMID 19378317, PMID 17982104, PMID 21443976; settings: cited from earlier work
TNF-α, RBL-2H3 = system: TNF-α, RBL-2H3; parameters: method as in PMID 19378317, PMID 17982104, PMID 21443976; settings: cited from earlier work
IL-4, RBL-2H3 = system: IL-4, RBL-2H3; parameters: method as in PMID 19378317, PMID 17982104, PMID 21443976; settings: cited from earlier work
[3] = system: COX, rat peritoneal leukocytes; parameters: method as in PMID 19378317, PMID 16220571, PMID 21443976; settings: cited from earlier work

SMILES: CC(C)=CCC[C@](C)(O)[C@@H]1CC=C(C)CC1 [(−)-α-bisabolol]
- IC50 [1]: 100 µM
- Leukocyte migration (RLM) ([2]; 1 µM): 0.53 ^*
- Leukocyte migration (RLM) ([2]; 30 µM): 0.48
- Anti-inflammatory activity at MTC [2]: 52%
- RLM (zebrafish-based assay) [2]: 0.48
- Maximum tolerated concentration (MTC) (zebrafish larvae): 30 µM

SMILES: C[C@@H]1C[C@H]2[C@@H]3CCC4=CC(=O)C=C[C@]4(C)[C@@]3(F)[C@@H](O)C[C@]2(C)[C@@]1(O)C(=O)CO [dexamethasone]
- Relative leukocyte migration (RLM) ([2]; 0.1 µM): 0.81
- Relative leukocyte migration (RLM) ([2]; 200 µM): 0.06

SMILES: NC12CC3CC(CC(C3)C1)C2 [amantadine, amantadine hydrochloride]
- Relative leukocyte migration (RLM) ([2]; 200 µM): 0.82
- Maximum tolerated concentration (MTC) (zebrafish larvae): 200 µM

SMILES: O=c1c(O)c(-c2ccc(O)c(O)c2)oc2cc(O)cc(O)c12 [Quercetin, quercetin]
- IC50 (TNF-α, RAW 264.7): 1000 nM
- Leukocyte migration (RLM) ([2]; 500 µM): 0.31 ^*
- response vs control in vivo at 1 µM ([2]; 1 µM): 65%
- response vs control in vivo at 10 µM [2]: 55%
- response vs control in vivo at 30 µM ([2]; 30 µM): 35%
- response vs control in vivo at 100 µM [2]: 42%
- response vs control in vivo at 300 µM ([2]; 300 µM): 40%
- response vs control in vivo at 500 µM ([2]; 500 µM): 31%
- Anti-inflammatory activity at MTC [2]: 69%
- Anti-inflammatory activity at MTC ([2]; listed as quercetin): 69%
- RLM (zebrafish-based assay) [2]: 0.31
- IC50 (TNF-α, iNOS, macrophages): 50 µM
- Maximum tolerated concentration (MTC) (zebrafish larvae): 500 µM
- IC50 (PGE2, rat macrophages): 13.9 µM

SMILES: O=C1C[C@@H](c2ccc(O)cc2)Oc2cc(O)cc(O)c21 [Naringenin, naringenin]
- Leukocyte migration (RLM) ([2]; 30 µM): 0.37 ^**
- response vs control in vivo at 1 µM ([2]; 1 µM): 67%
- response vs control in vivo at 10 µM [2]: 42%
- response vs control in vivo at 30 µM ([2]; 30 µM): 37%
- Anti-inflammatory activity at MTC [2]: 63%
- RLM (zebrafish-based assay) [2]: 0.37
- Maximum tolerated concentration (MTC) (zebrafish larvae): 30 µM

SMILES: O=c1cc(-c2ccc(O)cc2)oc2cc(O)cc(O)c12 [Apigenin, apigenin]
- IC50 (IL-1β, human monocytes): 10 µM
- IC50 (TNF-α, RBL-2H3): 5.3 µM
- Leukocyte migration (RLM) ([2]; 500 µM): 0.35 ^***
- response vs control in vivo at 1 µM ([2]; 1 µM): 74%
- response vs control in vivo at 10 µM [2]: 53%
- response vs control in vivo at 30 µM ([2]; 30 µM): 54%
- response vs control in vivo at 100 µM [2]: 37%
- response vs control in vivo at 300 µM ([2]; 300 µM): 37%
- response vs control in vivo at 500 µM ([2]; 500 µM): 35%
- Anti-inflammatory activity at MTC [2]: 65%
- Anti-inflammatory activity at MTC ([2]; listed as apigenin): 65%
- RLM (zebrafish-based assay) [2]: 0.35
- IC50 (IL-4, RBL-2H3): 3.6 µM
- Maximum tolerated concentration (MTC) (zebrafish larvae): 500 µM

SMILES: COc1ccc2c(c1)c(CC(=O)O)c(C)n2C(=O)c1ccc(Cl)cc1 [indomethacin]
- Relative leukocyte migration (RLM) ([2]; 0.1 µM): 0.72
- Relative leukocyte migration (RLM) ([2]; 200 µM): 0.09
- Maximum tolerated concentration (MTC) (zebrafish larvae): 200 µM

SMILES: C[C@]12C=CC(=O)C=C1CC[C@@H]1[C@@H]2[C@@H](O)C[C@@]2(C)[C@H]1CC[C@]2(O)C(=O)CO [prednisolone]
- Relative leukocyte migration (RLM) ([2]; 0.1 µM): 0.66
- Relative leukocyte migration (RLM) ([2]; 200 µM): 0.07

SMILES: O=C(O)Cc1ccccc1Nc1c(Cl)cccc1Cl [diclofenac]
- Relative leukocyte migration (RLM) ([2]; 0.1 µM): 0.69
- response vs control in vivo at 10 µM [2]: 13%
- Maximum tolerated concentration (MTC) (zebrafish larvae): 10 µM

SMILES: Nc1nc(N)nc(N)n1 [melamine]
- Relative leukocyte migration (RLM) ([2]; 200 µM): 0.85
- Maximum tolerated concentration (MTC) (zebrafish larvae): 200 µM

SMILES: CN1C(C(=O)Nc2ccccn2)=C(O)c2ccccc2S1(=O)=O [piroxicam]
- Relative leukocyte migration (RLM) ([2]; 0.1 µM): 0.85
- response vs control in vivo at 100 µM [2]: 3%
- Maximum tolerated concentration (MTC) (zebrafish larvae): 100 µM

SMILES: O=c1cc(-c2ccc(O)c(O)c2)oc2cc(O)cc(O)c12 [Luteolin, luteolin]
- IC50 (TNF-α, RAW 264.7): < 1000 nM
- IC50 [3]: 100 µg/mL (≈ 349 µM)
- response vs control in vivo at 1 µM ([2]; 1 µM): 63%
- response vs control in vivo at 10 µM [2]: 61%
- response vs control in vivo at 30 µM ([2]; 30 µM): 55%
- response vs control in vivo at 100 µM [2]: 48%
- response vs control in vivo at 300 µM ([2]; 300 µM): 44%
- response vs control in vivo at 500 µM ([2]; 500 µM): 41%
- Anti-inflammatory activity at MTC [2]: 59%
- RLM (zebrafish-based assay) [2]: 0.41
- Maximum tolerated concentration (MTC) (zebrafish larvae): 500 µM

SMILES: C[C@]1(OC(=O)/C=C/c2ccccc2)C[C@@H](O)[C@]2(O)C=CO[C@@H](O[C@@H]3O[C@H](CO)[C@@H](O)[C@H](O)[C@H]3O)[C@@H]21 [Harpagoside, harpagoside]
- Leukocyte migration (RLM) ([2]; 300 µM): 0.12 ^*
- response vs control in vivo at 1 µM ([2]; 1 µM): 48%
- response vs control in vivo at 10 µM [2]: 29%
- response vs control in vivo at 30 µM ([2]; 30 µM): 30%
- response vs control in vivo at 100 µM [2]: 15%
- response vs control in vivo at 300 µM ([2]; 300 µM): 12%
- Maximum tolerated concentration (MTC) (zebrafish larvae): 300 µM

SMILES: CN(C)CCC=C1c2ccccc2COc2ccccc21 [doxepin, doxepin hydrochloride]
- response vs control in vivo at 30 µM ([2]; 30 µM): 71%
